Laboratory results from PubChem BioAssay AID1963866 (Molecular Pharmacology Branch, DTP, NCI, 2024).

System: PDC KRAS tumor spheroids with HUVEC/MSC, viability
Assay: Anticancer human tumor 349418-098-R-PDC patient-derived lung adenocarcinoma cell line growth inhibition [KRAS2]
Conditions: for viability, T/C: stronger effect = lower value
Procedure, shortened: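 Combination screen of spheroid viability in tumor-cell co-cultures with endothelial (HUVEC) and mesenchymal stem cell stroma. Each agent was tested in half-log dilutions, topping at clinical Cmax or at 10 microM without a known Cmax.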

[1] = curve of first compound, second compound 0.1 µM
[2] = curve of first compound, second compound 0.316 µM
[3] = curve of first compound, second compound 1 µM
[4] = curve of first compound, second compound 3.16 µM
[5] = curve of first compound, second compound 10 µM
[6] = second compound 0.1 µM, first compound 0.0316 µM
[7] = second compound 0.1 µM, first compound 0.1 µM
[8] = second compound 0.1 µM, first compound 0.316 µM
[9] = second compound 0.1 µM, first compound 1 µM
[10] = second compound 0.1 µM, first compound 3.16 µM
[11] = second compound 0.1 µM, first compound 10 µM
[12] = second compound 0.316 µM, first compound 0.0316 µM
[13] = second compound 0.316 µM, first compound 0.1 µM
[14] = second compound 0.316 µM, first compound 0.316 µM
[15] = second compound 0.316 µM, first compound 1 µM
[16] = second compound 0.316 µM, first compound 3.16 µM
[17] = second compound 0.316 µM, first compound 10 µM
[18] = second compound 1 µM, first compound 0.0316 µM
[19] = second compound 1 µM, first compound 0.1 µM
[20] = second compound 1 µM, first compound 0.316 µM
[21] = second compound 1 µM, first compound 1 µM
[22] = second compound 1 µM, first compound 3.16 µM
[23] = second compound 1 µM, first compound 10 µM
[24] = second compound 3.16 µM, first compound 0.0316 µM
[25] = second compound 3.16 µM, first compound 0.1 µM
[26] = second compound 3.16 µM, first compound 0.316 µM
[27] = second compound 3.16 µM, first compound 1 µM
[28] = second compound 3.16 µM, first compound 3.16 µM
[29] = second compound 3.16 µM, first compound 10 µM
[30] = second compound 10 µM, first compound 0.0316 µM
[31] = second compound 10 µM, first compound 0.1 µM
[32] = second compound 10 µM, first compound 0.316 µM
[33] = second compound 10 µM, first compound 1 µM
[34] = second compound 10 µM, first compound 3.16 µM
[35] = second compound 10 µM, first compound 10 µM
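Further: spheroids exposed to compounds for seven days before readout.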

| Compound | IC50 [1] [nM] | IC50 [2] [nM] | IC50 [3] [nM] | IC50 [4] [nM] | IC50 [5] [nM] | viability, T/C [6] [%] | viability, T/C [7] [%] | viability, T/C [8] [%] | viability, T/C [9] [%] | viability, T/C [10] [%] | viability, T/C [11] [%] | viability, T/C [12] [%] | viability, T/C [13] [%] | viability, T/C [14] [%] | viability, T/C [15] [%] | viability, T/C [16] [%] | viability, T/C [17] [%] | viability, T/C [18] [%] | viability, T/C [19] [%] | viability, T/C [20] [%] | further results |
| --- | --- | --- | --- | --- | --- | --- | --- | --- | --- | --- | --- | --- | --- | --- | --- | --- | --- | --- | --- | --- | --- |
| COc1cc(Nc2ncc3c(n2)-c2ccc(Cl)cc2C(c2c(F)cccc2OC)=NC3)ccc1C(=O)O + CNCc1ccccc1-c1csc(C(C)Nc2nc(C)nc3cc(OC)c(OC)cc23)c1 | < 31.6 | < 31.6 | < 31.6 | < 31.6 | < 31.6 | 51.9 | 26.1 | 38.8 | 36.7 | 32.7 | 24.8 | 51.1 | 26.1 | 35.7 | 32.2 | 32.8 | 28.8 | 40.2 | 23.6 | 32.4 | viability, T/C [21]: 26.8%; viability, T/C [22]: 25.9%; viability, T/C [23]: 26.7%; viability, T/C [24]: 0.15%; viability, T/C [25]: 0.11%; viability, T/C [26]: 0.14%; viability, T/C [27]: 0.14%; viability, T/C [28]: 0.08%; viability, T/C [29]: 0.29%; viability, T/C [30]: 0.08%; viability, T/C [31]: 0.07%; viability, T/C [32]: 0.08%; viability, T/C [33]: 0.08%; viability, T/C [34]: 0.08%; viability, T/C [35]: 0.13% |
| COC(=O)c1ccc2c(C(=Nc3ccc(N(C)C(=O)CN4CCN(C)CC4)cc3)c3ccccc3)c(O)[nH]c2c1 + CC1OCC2(CCN(c3cnc(Sc4ccnc(N)c4Cl)c(N)n3)CC2)C1N | 1450 | 1460 | 1230 | 1060 | 600 | 100 | 104 | 82.3 | 68.1 | 12.1 | 15.3 | 102 | 93.3 | 92.5 | 68.7 | 7.79 | 14.9 | 82.6 | 114 | 71.5 | viability, T/C [21]: 63.6%; viability, T/C [22]: 12.2%; viability, T/C [23]: 12.3%; viability, T/C [24]: 79.2%; viability, T/C [25]: 101%; viability, T/C [26]: 75.3%; viability, T/C [27]: 54.3%; viability, T/C [28]: 14%; viability, T/C [29]: 11.5%; viability, T/C [30]: 81.2%; viability, T/C [31]: 75.4%; viability, T/C [32]: 61.5%; viability, T/C [33]: 42.2%; viability, T/C [34]: 14.8%; viability, T/C [35]: 7.52% |
| CC1(C)CCC(CN2CCN(c3ccc(C(=O)NS(=O)(=O)c4ccc(NCC5CCOCC5)c([N+](=O)[O-])c4)c(Oc4cnc5[nH]ccc5c4)c3)CC2)=C(c2ccc(Cl)cc2)C1 + C=CC(=O)N1CCN(c2nc(=O)n(-c3c(C)ccnc3C(C)C)c3nc(-c4c(O)cccc4F)c(F)cc23)C(C)C1 | 1740 | 1760 | 1160 | 538 | < 31.6 | 99.6 | 91.4 | 91.7 | 85.1 | 12.4 | 3.05 | 92.5 | 92.2 | 82.6 | 78.7 | 20.4 | 3.58 | 78.4 | 80.5 | 75.4 | viability, T/C [21]: 55.6%; viability, T/C [22]: 12.9%; viability, T/C [23]: 2.8%; viability, T/C [24]: 59.6%; viability, T/C [25]: 58.2%; viability, T/C [26]: 52.6%; viability, T/C [27]: 44.2%; viability, T/C [28]: 13.1%; viability, T/C [29]: 3.37%; viability, T/C [30]: 32.7%; viability, T/C [31]: 33.7%; viability, T/C [32]: 31.9%; viability, T/C [33]: 32.5%; viability, T/C [34]: 6.8%; viability, T/C [35]: 5.41% |
| COc1cc(Nc2ncc3c(n2)-c2ccc(Cl)cc2C(c2c(F)cccc2OC)=NC3)ccc1C(=O)O + COc1cc2nc(C)nc(NC(C)c3cc(N)cc(C(F)(F)F)c3)c2cc1OC1CCOC1 | 47.4 | 36 | < 31.6 | < 31.6 | < 31.6 | 60 | 30.7 | 31.8 | 34.2 | 23.3 | 23.8 | 52.8 | 27.4 | 30.8 | 26.5 | 25.4 | 23.4 | 48.5 | 31.2 | 36.2 | viability, T/C [21]: 33%; viability, T/C [22]: 28.3%; viability, T/C [23]: 20.5%; viability, T/C [24]: 45.8%; viability, T/C [25]: 29.4%; viability, T/C [26]: 28%; viability, T/C [27]: 25.5%; viability, T/C [28]: 18.4%; viability, T/C [29]: 19.1%; viability, T/C [30]: 16.7%; viability, T/C [31]: 22%; viability, T/C [32]: 12.4%; viability, T/C [33]: 9.24%; viability, T/C [34]: 16.1%; viability, T/C [35]: 6% |
| CCNC(=O)CC1N=C(c2ccc(Cl)cc2)c2cc(OC)ccc2-n2c(C)nnc21 (configuration not stated) |  |  |  |  |  |  |  |  |  |  |  |  |  |  |  |  |  |  |  |  | viability, T/C (compound 0.1 µM): 57.3% [middle of 5 runs]; viability, T/C (compound 0.316 µM): 30.4% [middle of 5 runs]; viability, T/C (compound 1 µM): 8.84% [middle of 5 runs]; viability, T/C (compound 3.16 µM): 2.06% [middle of 5 runs]; viability, T/C (compound 10 µM): 1.07% [middle of 5 runs]; IC50 (curve of compound): 138 nM [middle of 5 runs] |
| Cn1nccc1Nc1nccc(-c2cc3c(s2)C(C)(C)N(CCN2CCOCC2)C3=O)n1 + C=CC(=O)N1CCN(c2nc(=O)n(-c3c(C)ccnc3C(C)C)c3nc(-c4c(O)cccc4F)c(F)cc23)C(C)C1 | 85.5 | 64.3 | 67.6 | 37.4 | < 31.6 | 75.7 | 46.1 | 23.6 | 13.3 | 10.8 | 7.2 | 72.4 | 29.5 | 30.2 | 18.7 | 12.2 | 7.24 | 64.9 | 39.1 | 33.6 | viability, T/C [21]: 18.3%; viability, T/C [22]: 13.3%; viability, T/C [23]: 9.7%; viability, T/C [24]: 53%; viability, T/C [25]: 34.9%; viability, T/C [26]: 25.7%; viability, T/C [27]: 16.5%; viability, T/C [28]: 9.89%; viability, T/C [29]: 8.92%; viability, T/C [30]: 32.6%; viability, T/C [31]: 19.6%; viability, T/C [32]: 16.1%; viability, T/C [33]: 13.9%; viability, T/C [34]: 9.06%; viability, T/C [35]: 6.64% |
| CC1(C)CCC(CN2CCN(c3ccc(C(=O)NS(=O)(=O)c4ccc(NCC5CCOCC5)c([N+](=O)[O-])c4)c(Oc4cnc5[nH]ccc5c4)c3)CC2)=C(c2ccc(Cl)cc2)C1 |  |  |  |  |  |  |  |  |  |  |  |  |  |  |  |  |  |  |  |  | viability, T/C (compound 0.0316 µM): 101% [middle of 5 runs]; viability, T/C (compound 0.1 µM): 97.5% [middle of 5 runs]; viability, T/C (compound 0.316 µM): 91.1% [middle of 5 runs]; viability, T/C (compound 1 µM): 88.3% [middle of 5 runs]; viability, T/C (compound 3.16 µM): 21.2% [middle of 5 runs]; viability, T/C (compound 10 µM): 5.14% [middle of 5 runs]; IC50 (curve of compound): 1.89 µM [middle of 5 runs] |
| CC1COCCN1c1cc(-c2ccnn2C)c2ccnc(-c3ccn[nH]3)c2n1 (configuration not stated) |  |  |  |  |  |  |  |  |  |  |  |  |  |  |  |  |  |  |  |  | viability, T/C (compound 0.1 µM): 10.9% [middle of 5 runs]; viability, T/C (compound 0.316 µM): 6.73% [middle of 5 runs]; viability, T/C (compound 1 µM): 5.15% [middle of 5 runs]; viability, T/C (compound 3.16 µM): 4.48% [middle of 5 runs] |
